Where a name gives a salt, the structure may show the parent alone.
Tests used:
[1] = test system: three melanoma cell lines and four human prostate cancer cell lines; assay: In vitro growth inhibition, average of all seven cell lines; assay type: cell-based; settings: for IC50: read-out: average IC50, average of all seven cell lines, as given in the text
[2] = Body weight during the in vivo efficacy study; settings: any of the treatment groups, during the experiment
[3] = test system: Bovine brain tubulin; assay: In vitro microtubule polymerization assay; assay type: biochemical; settings: 10 μM compound, absorbance at 340 nm, 15 min, 37°C
[4] = Aqueous solubility, miniaturized shake-flask method with LC-MS/MS; assay type: physicochemical
[5] = test system: MDA-MB-435; assay: In vitro growth inhibition, sensitive parent melanoma cell line; assay type: cell-based, human; settings: read-out: IC50 ± SEM MDA-MB-435, n=3

IC50 [1] [nM] | Molecule | further results
> 10000 | O=S(=O)(c1ccccc1)n1ccnc1-c1ccccc1 [3a, 2-Phenyl-1-(phenylsulfonyl)-1H-imidazole] | –
> 10000 | O=S(=O)(c1ccccc1)n1ccnc1-c1ccc(OCc2ccccc2)cc1 [3j, 2-(4-(Benzyloxy)phenyl)-1-(phenylsulfonyl)-1H-imidazole] | –
> 10000 | O=[N+]([O-])c1ccc(-c2nccn2S(=O)(=O)c2ccccc2)cc1 [3x, 2-(4-Nitrophenyl)-1-(phenylsulfonyl)-1H -imidazole] | –
> 10000 | COc1cc(C(=O)n2ccnc2-c2ccccc2)cc(OC)c1OC [5aaa, (2-Phenyl-1H-imidazol-1-yl)(3,4,5-trimethoxyphenyl) methanone] | –
> 10000 | COc1ccc(C(=O)c2c[nH]c(-c3ccccc3)n2)cc1 [5ab, (4-Methoxyphenyl)(2-phenyl-1 H-imidazol-4-yl)methanone] | –
> 10000 | COc1ccc(C(=O)n2ccnc2-c2ccccc2)cc1 [5aba, (4-Methoxyphenyl)(2-phenyl-1H-imidazol-1-yl) methanone] | –
> 10000 | COc1cccc(C(=O)c2c[nH]c(-c3ccccc3)n2)c1 [5ac, (3-Methoxyphenyl)(2-phenyl-1H-imidazol-4-yl)methanone] | –
> 10000 | COc1ccc(C(=O)c2c[nH]c(-c3ccccc3)n2)cc1OC [5ae, (3,4-Dimethoxyphenyl)(2-phenyl-1H-imidazol-4-yl)methanone] | –
> 10000 | O=C(c1cccc(F)c1)c1c[nH]c(-c2ccccc2)n1 [5ag, (3-Fluorophenyl)(2-phenyl-1H-imidazol-4-yl)methanone] | –
> 10000 | Cc1ccc(C(=O)c2c[nH]c(-c3ccccc3)n2)cc1 [5ah, (2-Phenyl-1H-imidazol-4-yl)(p-tolyl)methanone] | –
> 10000 | Cc1cccc(C(=O)c2c[nH]c(-c3ccccc3)n2)c1 [5ai, (2-Phenyl-1H-imidazol-4-yl)(m-tolyl)methanone] | –
– | COc1ccc(-c2nc(C(=O)c3ccc(F)cc3)c[nH]2)cc1 [5cb, (4-Fluorophenyl)(2-(4-methoxyphenyl)-1H-imidazol-4-yl)methanone] | weight loss [2]: No significant weight loss
– | COc1cc(C(=O)c2c[nH]c(-c3ccc(C)cc3)n2)cc(OC)c1OC [5da, (2-(p-Tolyl)-1H-imidazol-4-yl)(3,4,5-trimethoxyphenyl)methanone] | inhibition of tubulin polymerization [3]: completely inhibited
172 | Cc1ccc(-c2nc(C(=O)c3ccc(F)cc3)c[nH]2)cc1 [5db-HCl, (4-Fluorophenyl)(2-(p-tolyl)-1H-imidazol-4-yl)methanone HCl salt] | –
> 10000 | COc1cc(C(=O)c2c[nH]c(-c3cc(OC)c(OC)c(OC)c3)n2)cc(OC)c1OC [5ea, (3,4,5-Trimethoxyphenyl)(2-(3,4,5-trimethoxyphenyl)-1H-imidazol-4-yl)methanone] | –
> 10000 | COc1cc(-c2nc(C(=O)c3ccc(F)cc3)c[nH]2)cc(OC)c1OC [5eb, (4-Fluorophenyl)(2-(3,4,5-trimethoxyphenyl)-1H-imidazol-4-yl)methanone] | –
7300 | COc1cc(C(=O)c2c[nH]c(-c3ccc(OCc4ccccc4)cc3)n2)cc(OC)c1OC [5ja, (2-(4-(Benzyloxy)phenyl)-1H-imidazol-4-yl)(3,4,5-trimethoxyphenyl)methanone] | –
75 | O=C(c1ccc(F)cc1)c1c[nH]c(-c2ccc(OCc3ccccc3)cc2)n1 [5jb, (2-(4-(Benzyloxy)phenyl)-1H-imidazol-4-yl)(4-fluorophenyl)methanone] | fold increase in activity compared with 5kb ([1]; from average IC50 values): 440 fold
193 | COc1cc(C(=O)c2c[nH]c(-c3ccc(C(F)(F)F)cc3)n2)cc(OC)c1OC [5la, (2-(4-(Trifluoromethyl)phenyl)-1H-imidazol-4-yl)(3,4,5-trimethoxyphenyl)methanone] | fold decrease of activity compared with compound 5da ([1]; from average IC50 values): 12 fold
– | CN(C)/N=N/c1[nH]cnc1C(N)=O [DTIC, dacarbazine, reference compound] | weight loss [2]: No significant weight loss
285 | (2-(4-(Dimethylamino)phenyl)-1-(phenylsulfonyl)-1H-imidazol-4-yl)(3, 4, 5-trimethoxyphenyl) methanone [4ga] | –
– | (2-(4-Chlorophenyl)-1-(phenylsulfonyl)-1H-imidazol-4-yl)(4-fluorophenyl)methanone [4fb] | IC50 [5]: 50 ± 6 nM
> 10000 | (4-Fluorophenyl)(2-(2-(trifluoromethyl)phenyl)-1H-imidazol-4-yl)methanone [5ib] | –

Molecule | IC50 [1] [nM] | further results
COc1cc(C(=O)c2c[nH]c(-c3ccc(N(C)C)cc3)n2)cc(OC)c1OC [5ga, (2-(4-(Dimethylamino)phenyl)-1H-imidazol-4-yl)(3,4,5-trimethoxyphenyl)methanone] | 131 | aqueous solubility, times greater than SMART-1 ([4]; buffer pH7.0): about 50 times; aqueous solubility, times greater than SMART-1 ([4]; water): ~10 times
COc1ccc(-c2nc(C(=O)c3cc(OC)c(OC)c(OC)c3)c[nH]2)cc1OC [5ha, (2-(3,4-Dimethoxyphenyl)-1H-imidazol-4-yl)(3,4,5-trimethoxyphenyl)methanone] | 330 | –
(2-(3, 4-Dimethoxyphenyl)-1-(phenylsulfonyl)-1H-imidazol-4-yl)(3,4,5-trimethoxyphenyl)methanone [4ha] | 268 | –
(2-(4-(Benzyloxy)phenyl)-1-(phenylsulfonyl)-1 H-imidazol-4-yl)(4-fluorophenyl) methanone [4jb] | 61 | –
(2-(4-(Dimethylamino)phenyl)-1-(phenylsulfonyl)-1H-imidazol-4-yl)(4-fluorophenyl)methanone [4gb] | 87 | –
(4-Fluorophenyl)(1-(phenylsulfonyl)-2-(p-tolyl)-1H-imidazol-4-yl) methanone [4db] | 111 | –
(4-Fluorophenyl)(2-(4-methoxyphenyl)-1-(phenylsulfonyl)-1H-imidazol-4-yl) methanone [4cb] | 43 | IC50 [5]: 38 ± 3 nM

— PMC2964152 (Journal of medicinal chemistry, 2010)
